Measured values from US11542304B2, “Multimeric bicyclic peptide ligands” (BicycleTx Limited, priority 2018, dated 2023).

Molecular target: CD137 (Homo sapiens, UniProt Q07011)
Assay: CD137 Promega reporter cell activity assay (NF-κB luciferase in Jurkat cells)
Conditions: for Average Fold EC50 Improvement relative to CD137L: Average EC50 for CD137L = 14.2 nM; for Average Relative Fold Induction relative to CD137L: Average fold induction for CD137L = 4.0
[1] = reference substance of Table 4A / 4B

CD137, sequence (Q07011 24-255): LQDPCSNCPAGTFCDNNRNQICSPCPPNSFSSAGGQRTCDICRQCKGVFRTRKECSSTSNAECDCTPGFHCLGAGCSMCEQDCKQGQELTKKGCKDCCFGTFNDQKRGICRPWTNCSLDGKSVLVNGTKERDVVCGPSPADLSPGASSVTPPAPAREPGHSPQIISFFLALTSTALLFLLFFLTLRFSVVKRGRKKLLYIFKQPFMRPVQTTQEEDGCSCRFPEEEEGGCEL

## CCCC[C@@H]1NC(=O)[C@H](Cc2ccc(O)cc2)NC(=O)[C@@H]2CCCN2C(=O)[C@H](CC(=O)O)NC(=O)[C@H](C)NC(=O)[C@H](Cc2ccccc2)NC(=O)[C@@H]2CSCCC(=O)N3CN(CN(C3)C(=O)CCSC[C@@H](C(=O)N[C@@H](C)C(N)=O)NC1=O)C(=O)CCSC[C@H](NC(=O)[C@H](C)NC(C)=O)C(=O)N[C@@H]([C@@H](C)CC)C(=O)N[C@@H](CCC(=O)O)C(=O)N[C@@H](CCC(=O)O)C(=O)NCC(=O)N[C@@H](CCCCNC(=O)CCc1cn(CCOCCOCCOCCOCCOCCOCCOCCOCCOCCOCCNC(=O)CCOCC(COCCC(=O)NCCOCCOCCOCCOCCOCCOCCOCCOCCOCCOCCn3cc(CCC(=O)NCCCC[C@@H]4NC(=O)CNC(=O)[C@H](CCC(=O)O)NC(=O)[C@H](CCC(=O)O)NC(=O)[C@H]([C@@H](C)CC)NC(=O)[C@@H](NC(=O)[C@H](C)NC(C)=O)CSCCC(=O)N5CN6CN(C5)C(=O)CCSC[C@H](NC(=O)[C@H](Cc5ccc(O)cc5)NC4=O)C(=O)N[C@@H](Cc4ccccc4)C(=O)N[C@@H](C)C(=O)N[C@@H](CC(=O)O)C(=O)N4CCC[C@H]4C(=O)N[C@@H](Cc4ccc(O)cc4)C(=O)N[C@@H](CCCC)C(=O)N[C@H](C(=O)N[C@@H](C)C(N)=O)CSCCC6=O)nn3)(COCCC(=O)NCCOCCOCCOCCOCCOCCOCCOCCOCCOCCOCCn3cc(CCC(=O)NCCCC[C@@H]4NC(=O)CNC(=O)[C@H](CCC(=O)O)NC(=O)[C@H](CCC(=O)O)NC(=O)[C@H]([C@@H](C)CC)NC(=O)[C@@H](NC(=O)[C@H](C)NC(C)=O)CSCCC(=O)N5CN6CN(C5)C(=O)CCSC[C@H](NC(=O)[C@H](Cc5ccc(O)cc5)NC4=O)C(=O)N[C@@H](Cc4ccccc4)C(=O)N[C@@H](C)C(=O)N[C@@H](CC(=O)O)C(=O)N4CCC[C@H]4C(=O)N[C@@H](Cc4ccc(O)cc4)C(=O)N[C@@H](CCCC)C(=O)N[C@H](C(=O)N[C@@H](C)C(N)=O)CSCCC6=O)nn3)COCCC(=O)NCCOCCOCCOCCOCCOCCOCCOCCOCCOCCOCCn3cc(CCC(=O)NCCCC[C@@H]4NC(=O)CNC(=O)[C@H](CCC(=O)O)NC(=O)[C@H](CCC(=O)O)NC(=O)[C@H]([C@@H](C)CC)NC(=O)[C@@H](NC(=O)[C@H](C)NC(C)=O)CSCCC(=O)N5CN6CN(C5)C(=O)CCSC[C@H](NC(=O)[C@H](Cc5ccc(O)cc5)NC4=O)C(=O)N[C@@H](Cc4ccccc4)C(=O)N[C@@H](C)C(=O)N[C@@H](CC(=O)O)C(=O)N4CCC[C@H]4C(=O)N[C@@H](Cc4ccc(O)cc4)C(=O)N[C@@H](CCCC)C(=O)N[C@H](C(=O)N[C@@H](C)C(N)=O)CSCCC6=O)nn3)nn1)C(=O)N[C@@H](Cc1ccc(O)cc1)C(=O)N2 [BCY7845]
  Average Fold EC50 Improvement relative to CD137L: 17.78
  Average Relative Fold Induction relative to CD137L: 1.54
FIGS. 1 to 3 and 15
  CD137 agonism / activation in reporter cells (in words): high levels of CD137 agonism
[1]
  Average fold induction: **Average fold induction for BCY7845 = 6.3

## CD137L: the natural ligand (CD137L) for activation of CD137
read-out: Average EC50, reference substance of Table 4A / 4B
  EC50: 14.2 nM
[1]
  Average fold induction: **Average fold induction for CD137L = 4.0

## CCCC[C@@H]1NC(=O)[C@H](Cc2ccc(O)cc2)NC(=O)[C@@H]2CCCN2C(=O)[C@H](CC(=O)O)NC(=O)[C@H](C)NC(=O)[C@H](CCCCNC(=O)OCC2C3CCc4nnn(CCOCCOCCOCCOCCOCCOCCOCCOCCOCCOCCNC(=O)CCOCC(COCCC(=O)NCCOCCOCCOCCOCCOCCOCCOCCOCCOCCOCCn5nnc6c5CCC5C(CC6)C5COC(=O)NCCCC[C@@H]5NC(=O)[C@@H]6CSCCC(=O)N7CN(CN(C7)C(=O)CCSC[C@@H](C(=O)N[C@@H](C)C(N)=O)NC(=O)[C@H](CCCC)NC(=O)[C@H](Cc7ccc(O)cc7)NC(=O)[C@@H]7CCCN7C(=O)[C@H](CC(=O)O)NC(=O)[C@H](C)NC5=O)C(=O)CCSC[C@H](NC(=O)[C@H](C)NC(C)=O)C(=O)N[C@@H]([C@@H](C)CC)C(=O)N[C@@H](CCC(=O)O)C(=O)N[C@@H](CCC(=O)O)C(=O)NCC(=O)N[C@@H](CCC(N)=O)C(=O)N[C@@H](Cc5ccc(O)cc5)C(=O)N6)(COCCC(=O)NCCOCCOCCOCCOCCOCCOCCOCCOCCOCCOCCn5nnc6c5CCC5C(CC6)C5COC(=O)NCCCC[C@@H]5NC(=O)[C@@H]6CSCCC(=O)N7CN(CN(C7)C(=O)CCSC[C@@H](C(=O)N[C@@H](C)C(N)=O)NC(=O)[C@H](CCCC)NC(=O)[C@H](Cc7ccc(O)cc7)NC(=O)[C@@H]7CCCN7C(=O)[C@H](CC(=O)O)NC(=O)[C@H](C)NC5=O)C(=O)CCSC[C@H](NC(=O)[C@H](C)NC(C)=O)C(=O)N[C@@H]([C@@H](C)CC)C(=O)N[C@@H](CCC(=O)O)C(=O)N[C@@H](CCC(=O)O)C(=O)NCC(=O)N[C@@H](CCC(N)=O)C(=O)N[C@@H](Cc5ccc(O)cc5)C(=O)N6)COCCC(=O)NCCOCCOCCOCCOCCOCCOCCOCCOCCOCCOCCn5nnc6c5CCC5C(CC6)C5COC(=O)NCCCC[C@@H]5NC(=O)[C@@H]6CSCCC(=O)N7CN(CN(C7)C(=O)CCSC[C@@H](C(=O)N[C@@H](C)C(N)=O)NC(=O)[C@H](CCCC)NC(=O)[C@H](Cc7ccc(O)cc7)NC(=O)[C@@H]7CCCN7C(=O)[C@H](CC(=O)O)NC(=O)[C@H](C)NC5=O)C(=O)CCSC[C@H](NC(=O)[C@H](C)NC(C)=O)C(=O)N[C@@H]([C@@H](C)CC)C(=O)N[C@@H](CCC(=O)O)C(=O)N[C@@H](CCC(=O)O)C(=O)NCC(=O)N[C@@H](CCC(N)=O)C(=O)N[C@@H](Cc5ccc(O)cc5)C(=O)N6)c4CCC32)NC(=O)[C@@H]2CSCCC(=O)N3CN(CN(C3)C(=O)CCSC[C@@H](C(=O)N[C@@H](C)C(N)=O)NC1=O)C(=O)CCSC[C@H](NC(=O)[C@H](C)NC(C)=O)C(=O)N[C@@H]([C@@H](C)CC)C(=O)N[C@@H](CCC(=O)O)C(=O)N[C@@H](CCC(=O)O)C(=O)NCC(=O)N[C@@H](CCC(N)=O)C(=O)N[C@@H](Cc1ccc(O)cc1)C(=O)N2 (stereo partly shown) [BCY8147]
  Average Fold EC50 Improvement relative to CD137L: 50.58
  Average Relative Fold Induction relative to CD137L: 1.04

## CCCC[C@@H]1NC(=O)[C@H](Cc2ccc(O)cc2)NC(=O)[C@@H]2CCCN2C(=O)[C@H](CC(=O)O)NC(=O)[C@H](C)NC(=O)[C@H](Cc2ccccc2)NC(=O)[C@@H]2CSCCC(=O)N3CN(CN(C3)C(=O)CCSC[C@@H](C(=O)N[C@@H](C)C(N)=O)NC1=O)C(=O)CCSC[C@H](NC(=O)[C@H](C)NC(C)=O)C(=O)N[C@@H]([C@@H](C)CC)C(=O)N[C@@H](CCC(=O)O)C(=O)N[C@@H](CCC(=O)O)C(=O)N[C@H](CCCCNC(=O)OCC1C3CCc4nnn(CCOCCOCCOCCOCCOCCOCCOCCOCCOCCOCCNC(=O)CCOCC(COCCC(=O)NCCOCCOCCOCCOCCOCCOCCOCCOCCOCCOCCn5nnc6c5CCC5C(CC6)C5COC(=O)NCCCC[C@H]5NC(=O)[C@H](CCC(=O)O)NC(=O)[C@H](CCC(=O)O)NC(=O)[C@H]([C@@H](C)CC)NC(=O)[C@@H](NC(=O)[C@H](C)NC(C)=O)CSCCC(=O)N6CN7CN(C6)C(=O)CCSC[C@H](NC(=O)[C@H](Cc6ccc(O)cc6)NC(=O)[C@H](CCC(N)=O)NC5=O)C(=O)N[C@@H](Cc5ccccc5)C(=O)N[C@@H](C)C(=O)N[C@@H](CC(=O)O)C(=O)N5CCC[C@H]5C(=O)N[C@@H](Cc5ccc(O)cc5)C(=O)N[C@@H](CCCC)C(=O)N[C@H](C(=O)N[C@@H](C)C(N)=O)CSCCC7=O)(COCCC(=O)NCCOCCOCCOCCOCCOCCOCCOCCOCCOCCOCCn5nnc6c5CCC5C(CC6)C5COC(=O)NCCCC[C@H]5NC(=O)[C@H](CCC(=O)O)NC(=O)[C@H](CCC(=O)O)NC(=O)[C@H]([C@@H](C)CC)NC(=O)[C@@H](NC(=O)[C@H](C)NC(C)=O)CSCCC(=O)N6CN7CN(C6)C(=O)CCSC[C@H](NC(=O)[C@H](Cc6ccc(O)cc6)NC(=O)[C@H](CCC(N)=O)NC5=O)C(=O)N[C@@H](Cc5ccccc5)C(=O)N[C@@H](C)C(=O)N[C@@H](CC(=O)O)C(=O)N5CCC[C@H]5C(=O)N[C@@H](Cc5ccc(O)cc5)C(=O)N[C@@H](CCCC)C(=O)N[C@H](C(=O)N[C@@H](C)C(N)=O)CSCCC7=O)COCCC(=O)NCCOCCOCCOCCOCCOCCOCCOCCOCCOCCOCCn5nnc6c5CCC5C(CC6)C5COC(=O)NCCCC[C@H]5NC(=O)[C@H](CCC(=O)O)NC(=O)[C@H](CCC(=O)O)NC(=O)[C@H]([C@@H](C)CC)NC(=O)[C@@H](NC(=O)[C@H](C)NC(C)=O)CSCCC(=O)N6CN7CN(C6)C(=O)CCSC[C@H](NC(=O)[C@H](Cc6ccc(O)cc6)NC(=O)[C@H](CCC(N)=O)NC5=O)C(=O)N[C@@H](Cc5ccccc5)C(=O)N[C@@H](C)C(=O)N[C@@H](CC(=O)O)C(=O)N5CCC[C@H]5C(=O)N[C@@H](Cc5ccc(O)cc5)C(=O)N[C@@H](CCCC)C(=O)N[C@H](C(=O)N[C@@H](C)C(N)=O)CSCCC7=O)c4CCC31)C(=O)N[C@@H](CCC(N)=O)C(=O)N[C@@H](Cc1ccc(O)cc1)C(=O)N2 (stereo partly shown) [BCY8104]
  Average Fold EC50 Improvement relative to CD137L: 103.27
  Average Relative Fold Induction relative to CD137L: 1.65
